Experimental data from paper PMC6271477, “Effects of Single Amino Acid Substitution on the Biophysical Properties and Biological Activities of an Amphipathic α-Helical Antibacterial Peptide Against Gram-Negative Bacteria” (Molecules, 2014).

Assays:
[1] = CD spectroscopy, helicity in benign buffer and in 50% TFE; format: physicochemical; conditions: for [θ]222, mean residue molar ellipticity, benign / [θ]222, mean residue molar ellipticity, 50% TFE: CD at 222 nm, peptide 75 μM; for [θ]222, mean residue molar ellipticity, benign / [θ]222, mean residue molar ellipticity, 50% TFE / % helix, 50% TFE: 25 °C; for [θ]222, mean residue molar ellipticity, benign: KP buffer (100 mM KCl, 50 mM K2HPO4/KH2PO4, pH 7.0); for [θ]222, mean residue molar ellipticity, 50% TFE / % helix, 50% TFE: KP buffer diluted 1:1 (v/v) with TFE; for % helix, 50% TFE / % helix, benign: relative to the molar ellipticity of peptide V16E in 50% TFE; for % helix, benign: KP buffer pH 7.0, 25 °C
Method: The secondary structures of peptides were determined in benign buffer and in a hydrophobic environment (50% trifluoroethanol, TFE) to mimic the hydrophobic environment of the membrane. […] The principle of side chain interaction at the i to i + 3 and i to i + 4 positions has been used to promote α-helix stability, for example, the incorporation of Lys and Glu residues to stabilize electrostatic attractions. Thus, the helicity of peptide V16E in the presence of 50% TFE that presented the greatest value among all analogs should rely on the contribution of the electrostatic attraction of the side chain of K13 and E16, which stabilizes the helix. The relative helicity is 100% for peptide V16E in 50% TFE, showing the importance of the salt bridges of K13 and E16 to stabilize the helical structure. In general, subtle side-chain alterations by single amino acid substitutions made no significant changes on secondary structures both in aqueous and in hydrophobic environments (Table 2).
Circular dichroism spectra were measured with a 0.02 cm path length quartz cuvette on a Jasco J-810 spectropolarimeter (Jasco, Tokyo, Japan) at 25 °C. Data were collected from 250 to 190 nm at a sensitivity of 100 millidegrees, response time of 1 s, bandwidth of 1.0 nm and a scan speed of 100 nm/min. Peptides were measured at a concentration of 75 μM in a benign buffer (50 mM KH2PO4/K2HPO4, 100 mM KCl, pH 7) or the benign buffer mixed with 50% 2,2,2-trifluoroethanol (TFE). The mean residue molar ellipticities were calculated using the equation [θ] = θ/10lcMn, where θ is the ellipticity in millidegrees, l is the optical path length of the cuvette in centimeters, cM is the peptide concentration in mole/liter and n is the number of residues in the peptide.

[2] = Dansyl-polymyxin B displacement assay (LPS binding affinity); design: species or system E. coli; conditions: LPS 3 μg/mL in 5 mM HEPES pH 7.2, 25 °C, fluorescence; result in words, Figure 5
Method: As most of the outer membrane is LPS, the affinity of peptide analogs to LPS of E. coli was further detected by dansyl-polymyxin B displacement assay. As it is the polar face of the molecule that binds LPS, and all the peptides V16A, V16S, V16G and P have the same number of positively charged residues on the polar face, they would be expected to have similar effects on LPS affinity (Figure 5).
Dansyl-polymyxin B was synthesized, purified and quantified as reported. It was then dissolved in HEPES buffer (5 mM, pH 7.2) at the concentration of 100 μM and the final concentration of LPS is 3 μg/mL in the same buffer. Fluorescence measurements were run on a Shimadzu RF-5301 spectrofluorometer using a 3 mL quartz cuvette with an excitation wavelength of 350 nm and an emission wavelength of 420 nm at 25 °C. For displacement assay, 15 μL of peptide solution (10 mg/mL) was titrated into the cuvette containing 2 mL LPS and 0.25 mL dansyl-polymyxin B, and the decrease in the observed fluorescence (percent inhibition) was recorded.

[3] = tested on: human red blood cells; assay: Hemolytic activity; format: cell-based; conditions: peptide 1,000 μg/mL, 1% human erythrocytes in PBS, 37 °C for 4 h, absorbance at 540 nm, 100% = distilled water
Method: Peptide samples were serially diluted using phosphate-buffered saline (PBS) in 96-well plates (round-bottom) to give a volume of 60 μL of the sample solution in each well. Human erythrocytes that had been anticoagulated using EDTAK2 were collected by centrifugation (1,000 ×g) for 5 min, washed twice with PBS, then diluted to a concentration of 2% in PBS. The erythrocytes (60 μL of 2% solution) were added to each well to achieve a final concentration of 1% human erythrocytes per well, and the reactions were incubated at 37 °C for 4 h. The plates were then centrifuged for 10 min at 3000 rpm and the supernatant (80 μL) was transferred to a 96-well plate (flat-bottom). The release of hemoglobin was determined by measuring the absorbance of the supernatant at 540 nm. Peptide samples were diluted in a 2-fold series to determine the minimum concentration at which hemolysis occurred. Erythrocytes in PBS and distilled water were used as controls of 0% and 100% hemolysis, respectively. Hemolysis percentage was calculated by the absorbance of peptide at the concentration of 1,000 μg/mL and compared with the 100% hemolysis.

Compound: Ac-KWKSFLKTFKSAKKTKLHTALKAISS-NH2 [Peptide V16K]
- [θ]222, mean residue molar ellipticity, benign [1]: −1,990 degree·cm^2·dmol^−^1
- [θ]222, mean residue molar ellipticity, 50% TFE [1]: −29,313 degree·cm^2·dmol^−^1
- % helix, 50% TFE [1]: 97.5%
- % helix, benign [1]: 6.6%
- Affinity to LPS (inhibition of dansyl-polymyxin B binding) [2]: more affinity than the Ser- or Gly-substituted peptides

Compound: CC[C@H](C)[C@H](NC(=O)[C@H](C)NC(=O)[C@H](CCCCN)NC(=O)[C@H](CC(C)C)NC(=O)[C@H](C)NC(=O)[C@@H](NC(=O)[C@H](Cc1cnc[nH]1)NC(=O)[C@H](CC(C)C)NC(=O)[C@@H](NC(=O)[C@@H](NC(=O)[C@H](CCCCN)NC(=O)[C@H](CCCCN)NC(=O)[C@H](C)NC(=O)[C@H](CO)NC(=O)[C@H](CCCCN)NC(=O)[C@H](Cc1ccccc1)NC(=O)[C@@H](NC(=O)[C@H](CCCCN)NC(=O)[C@H](CC(C)C)NC(=O)[C@H](Cc1ccccc1)NC(=O)[C@H](CO)NC(=O)[C@H](CCCCN)NC(=O)[C@H](Cc1c[nH]c2ccccc12)NC(=O)[C@H](CCCCN)NC(C)=O)[C@@H](C)O)[C@@H](C)O)C(C)C)[C@@H](C)O)C(=O)N[C@@H](CO)C(=O)N[C@@H](CO)C(N)=O [P]
- [θ]222, mean residue molar ellipticity, benign [1]: −2,592 degree·cm^2·dmol^−^1
- [θ]222, mean residue molar ellipticity, 50% TFE [1]: −29,726 degree·cm^2·dmol^−^1
- % helix, 50% TFE [1]: 98.9%
- % helix, benign [1]: 8.6%
- Hemolysis Percentage [3]: 28.3%
